{
  "source": "patent US20040166559A1",
  "about": "“Vectors for gene therapy” (priority 2001, published 2004)",
  "key": {"[1]": {"tested_on": "primary T-cells", "assay": "GCV sensitivity of G1Tk1SvNa transduced primary T-cells following G418 selection", "assay_type": "cell-based, human", "conditions": "n=12", "method": "Transduction of donor T-cells with the G1Tk1SvNa retroviral vector was as previously described (Robinet et al (1998) J. Hematother. 7, 205-215). PBMNC were cultured for 3 days with OKT3 (10 ng, Ortho) and rhIL-2 (500 U/mL, Chiron). Infection with retroviral supernatant for 24 hours was followed by G418 (800 μg/mL, Sigma) selection of transduced cells for 7 days. Dead cells were removed and the viable transduced product was cryopreserved for future use. The transduction of CEM cells with the G1Tk1SvNa vector involved identical infection conditions to those described for the SFCMM3 vector, followed by selection in G418 (800 μg/ml) for 7-14 days.\nThe transduction efficiency of primary T-cells with G1Tk1SvNa prior to G418 selection, as measured by quantitative PCR for Neo^R, was 8.3±1.4% (n=12). The GCV sensitivity of these cells following G418 selection was 87±1.2% (n=12). The relative cell growth of control and transduced cells from one representative transduction/selection experiment is shown in FIG. 16."}, "[2]": {"tested_on": "circulating transduced T-cells", "assay": "Clinical study: transduced donor T-cells with T cell depleted bone marrow, GCV treatment of GvHD", "assay_type": "in vivo, human", "excerpt": "Escalating amounts of CD3^+ gene-modified cells were infused with T cell depleted bone marrow. Twelve patients with hematological malignancies received 2×10^5 (n=5), 6×10^5 (n=5) or 20×10^5 (n=2) transduced donor CD3^+ cells/kg with bone marrow from an HLA-identical sibling. Acute toxicity was not observed. […] Three patients developed acute GvHD grade≧II while 1 patient developed chronic GvHD (skin and salivary glands). […] In patients receiving GCV, blood samples for detection of gene-modified cells expressing the wild-type or truncated form of the HSV-Tk gene were harvested prior to GCV treatment and a regular two weeks intervals."}, "[3]": {"tested_on": "transduced donor cells", "conditions": "one patient with chronic GvHD; declined from 11.9%; cited from earlier work"}, "[4]": {"tested_on": "T cell lines and primary T cells", "assay": "GCV sensitivity of T cell lines and primary T cells transduced with corrected or non-corrected HSV-Tk vectors", "assay_type": "cell-based, human", "conditions": "inhibition of cell viability", "excerpt": "FIG. 18. GCV sensitivity of T cell lines and primary T cells transduced with corrected or non-corrected HSV-Tk vectors. GCV sensitivity of Hut-78 (A) and CEM (B) cell line transduced with corrected SF/Tk/mut (?) or non-corrected vector G1Tk1SVNa (◯) or SF/Tk/wt (Δ) compared to untransduced T-cell lines (▪). The data represents the inhibition of cell viability and are the mean±SD of 8 and 3 different independent experiments, for CEM and Hut-78 cell lines respectively. (C) GCV sensitivity of primary T cells transduced with corrected sc-SFCMM3 (Δ) or non corrected SFCMM3 vectors (?) compared to untransduced T cells (▪).\nPrimary T cells and the T cell lines, HuT78 (ATCC TIB-161) and CEM (ATCC CRL 2265)] were transduced with G1Tk1SVNa, SF/Tk/wt, SF/Tk/mut, SFCMM3 or scSFCMM3 vectors. HSV-Tk PCR (as described in^7) was performed on transduced target cells. In addition, PCR was performed using primers which selectively amplified the deleted form of the HSV-Tk gene using a 5′ primer, which spans the truncation point [TrTk1: 5′CTCGACCAGG§GCCGTGCT. (§ denoting the junction) and the previously described RTk2 3′ primer^7. Splicing from the transduced cell lines was quantified as described.^7"}, "[5]": {"tested_on": "TK-CEM sub-clones", "assay": "Ganciclovir cytotoxic assay (3H-thymidine incorporation)", "assay_type": "cell-based, human", "conditions": "for IC50: Homo sapiens", "method": "Cells were incubated for 4 days in the presence of increasing concentration of GCV (range from 0.05 to 12.5 μg/mL). Cell proliferation was measured by the incorporation of ^3H— thymidine into the cell DNA. Results are expressed as percentage of incorporated ^3H-thymidine at each GCV concentration respect to the incorporation obtained in the absence of GCV. (♦) non-transduced CEM cells and (▪) SFCMM 3 transduced TK-CEM sub-clones.\nGanciclovir Cytotoxic Assay\nA total of 2×10^4 cells/well were seeded into a 96-well plate in 100 μL of medium. Cells were cultured for 4 days with increasing concentrations (from 0.05 to 12.5 μg/mL) of GCV (Cymevene®, Hoffman-La Roche A G, Germany). Afterwards, 1 μCi/well of tritiated thymidine (methyl ^3H-thymidine, TRA.120, 1.0 MBq/mL, Amersham International, England) was added 18 h. before harvesting the cell DNA in a cell harvester (Wallac, Gaitherburg, Md.). The incorporation of ^3H-thymidine into the DNA was measured in a β-scintillation counter (Wallac 1410, aitherburg, Md.). All GCV concentrations were tested in triplicate esults are expressed as percentage of incorporated ^3H-thymidine at each GCV concentration with respect to the incorporation obtained in the absence of GCV.\nThe expression of the HSV-TK transgene m the TK-CEM sub-clones was determined by the inhibition in cell proliferation when the cells were cultured at increasing concentrations of GCV."}, "[6]": {"conditions": "patients, GCV treatment for GvHD, quantitative PCR of the NeoR gene"}},
  "note": "Where two headings read alike, the source gives them in different places.",
  "data": [
    {"smiles": "Nc1nc(O)c2ncn(COC(CO)CO)c2n1", "note": "[GCV]", "values": [
      {"measurement": "GCV sensitivity", "setting": "[1]", "value": "87±1.2", "unit": "%"},
      {"measurement": "change in circulating transduced T-cells", "setting": "[2]; patients receiving ganciclovir", "value": "significant rapid decrease"},
      {"measurement": "reduction of absolute number of circulating transduced T-cells", "setting": "[2]; [6]", "value": "76-99.5%"},
      {"measurement": "reduction of percentage of circulating transduced T-cells", "setting": "[2]; [6]", "value": "85-98%"},
      {"measurement": "outcome of chronic GvHD", "setting": "[2]; the patient with chronic GvHD (skin and salivary glands)", "value": "Long-lasting CR"},
      {"measurement": "outcome of acute GvHD", "setting": "[2]; treatment with GCV alone, three patients had acute GvHD grade ≧II", "value": "complete remission (CR) in 2 patients"},
      {"measurement": "proportion of transduced donor cells after administration of GCV", "setting": "[3]", "value": 2.8, "unit": "%"},
      {"measurement": "GCV sensitivity of cells expressing the mutated HSV-Tk gene compared to populations transduced by wild-type gene", "setting": "[4]", "value": "only marginally increased"},
      {"measurement": "IC50", "setting": "[5]; 96 h, TK-CEM clones #6 and #10, 4 days with GCV, read-out: concentration of GCV to achieve the 50% inhibition in cell proliferation", "value": 0.25, "unit": "µg/mL"},
      {"measurement": "IC50", "setting": "[5]; read-out: IC50 inhibition in cell proliferation assessed by the incorporation of 3H-thymidine", "value": 0.1, "unit": "µg/mL"},
      {"measurement": "cell proliferation at increasing concentrations of GCV", "setting": "[5]; TK-CEM clones #1, #2, #4, #5, #7 and #14", "value": "parallel to that obtained in the non-transduced cells"},
      {"measurement": "complete inhibition in cell proliferation", "setting": "[5]; TK-CEM clones #6 and #10, GCV increased up to 12.5 μg/mL", "value": "not completely achieved"}
    ]}
  ]
}
